For one data set, the target named is T1, DAT (SLC6A3) (Homo sapiens, UniProt Q01959).
T1 construct: expressed in transfected cells
The data set can be described thus: in vitro inhibition profile, IC50 of DAT (uptake assay). The class given is cell-based. The protocol:
Before the assay, cells expressing DAT are washed once with KRH and equilibrated for 5 min. The cells may be assayed in 24-well plates and incubated for 2-5 min. with tritiated amines. Nontransported inhibitors were preincubated for 5 min, and substrates were applied together with the tritiated substrate.
Experiments to determine the ionic requirements for DAT-mediated uptake are done in KRH buffer, substituting LiCl or choline Cl for NaCl (sodium-dependence) or substituting D-gluconates for NaCl and KCl, and Ca(NO3)2 for CaCl2 (chloride dependence). Cells are washed twice with sodium- or chloride-free KRH before the assay (each wash step at least 5 min). In all transport assays, incubation periods and substrate concentrations are chosen such that uptake obeyed first-order rate kinetics.
Vmax values for amine uptake in stable transfected DAT-cells are determined in parallel assays for at least two amines per experiment and expressed as relative values.

In another data set the target is sigma-1 (σ1) receptor (Homo sapiens, UniProt Q99720). In words: in vitro selectivity panel, sigma-1 receptor. The data set is classed as binding. The procedure:
(§1) The in vitro selectivity profile of two representative subject compounds, (3) and (1), are also tested against a panel of other receptors, including the M1 receptor, Histamine H1 receptor, sigma-1 (σ1) receptor, β1-adrenergic receptor, and dopamine D2 receptor. Representative results are listed below in Table III: […]

The next data set deals with dopamine D2 receptor (Homo sapiens, UniProt P14416). In words: in vitro selectivity panel, dopamine D2 receptor. The data set is classed as binding. The protocol: as §1
Sequence of dopamine D2 receptor (P14416 whole entry): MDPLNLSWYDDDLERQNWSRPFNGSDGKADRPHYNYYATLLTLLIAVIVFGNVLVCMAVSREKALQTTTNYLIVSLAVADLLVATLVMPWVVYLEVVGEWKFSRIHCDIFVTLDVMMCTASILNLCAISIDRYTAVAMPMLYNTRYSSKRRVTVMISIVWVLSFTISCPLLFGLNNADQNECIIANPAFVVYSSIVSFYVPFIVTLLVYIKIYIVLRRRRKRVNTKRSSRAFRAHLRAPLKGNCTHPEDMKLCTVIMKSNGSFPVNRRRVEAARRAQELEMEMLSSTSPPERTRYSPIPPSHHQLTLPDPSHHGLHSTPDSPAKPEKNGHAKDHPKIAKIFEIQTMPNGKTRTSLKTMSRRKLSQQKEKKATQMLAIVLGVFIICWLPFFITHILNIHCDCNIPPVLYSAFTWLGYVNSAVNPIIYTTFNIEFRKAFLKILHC
Another data set in a line: in vivo. As to conditions: rat.
Another data set has as its target T2, DAT (h) (Homo sapiens, UniProt Q01959).
T2 construct: expressed in transfected cells
The data set can be described thus: cell-based. The data set is classed as cell-based. As to conditions: human; nM; read-out: DAT (h) in vitro functional uptake. The protocol: (§2) Functional activity of the compounds was determined in vitro in cellular assays using recombinant human cell lines.

A further data set addresses T3, NET (h) (Homo sapiens, UniProt P23975).
T3 construct: expressed in transfected cells; host or cells: MDCK
In words: cell-based. The class given is cell-based. As to conditions: human; nM; read-out: NET (h) in vitro functional uptake. The procedure:
as §2

For another data set, the target named is Histamine H1 receptor (Homo sapiens, UniProt P35367). The data set can be described thus: in vitro selectivity panel, Histamine H1 receptor. The data set is classed as binding. The procedure: as §1
Sequence of Histamine H1 receptor (P35367 whole entry): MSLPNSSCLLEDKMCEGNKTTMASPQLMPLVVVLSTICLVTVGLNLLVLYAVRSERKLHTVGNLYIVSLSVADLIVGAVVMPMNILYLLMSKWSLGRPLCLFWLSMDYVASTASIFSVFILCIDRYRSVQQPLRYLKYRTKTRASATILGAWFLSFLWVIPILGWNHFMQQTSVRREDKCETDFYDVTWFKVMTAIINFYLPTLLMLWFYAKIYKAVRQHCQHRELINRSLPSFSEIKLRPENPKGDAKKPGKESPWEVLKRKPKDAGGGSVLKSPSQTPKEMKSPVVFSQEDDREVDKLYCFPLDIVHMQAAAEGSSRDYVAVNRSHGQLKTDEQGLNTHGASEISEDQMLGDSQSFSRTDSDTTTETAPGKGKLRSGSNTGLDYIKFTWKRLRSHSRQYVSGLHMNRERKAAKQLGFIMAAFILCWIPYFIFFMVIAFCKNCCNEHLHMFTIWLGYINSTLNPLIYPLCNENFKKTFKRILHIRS
For data set [1], the target named is NET (norepinephrine transporter or SLC6A2) (Homo sapiens, UniProt P23975). In words: cell-based. As to conditions: own compounds tested as racemic mixtures of enriched diastereomers.
Sequence of NET (norepinephrine transporter or SLC6A2) (P23975 whole entry): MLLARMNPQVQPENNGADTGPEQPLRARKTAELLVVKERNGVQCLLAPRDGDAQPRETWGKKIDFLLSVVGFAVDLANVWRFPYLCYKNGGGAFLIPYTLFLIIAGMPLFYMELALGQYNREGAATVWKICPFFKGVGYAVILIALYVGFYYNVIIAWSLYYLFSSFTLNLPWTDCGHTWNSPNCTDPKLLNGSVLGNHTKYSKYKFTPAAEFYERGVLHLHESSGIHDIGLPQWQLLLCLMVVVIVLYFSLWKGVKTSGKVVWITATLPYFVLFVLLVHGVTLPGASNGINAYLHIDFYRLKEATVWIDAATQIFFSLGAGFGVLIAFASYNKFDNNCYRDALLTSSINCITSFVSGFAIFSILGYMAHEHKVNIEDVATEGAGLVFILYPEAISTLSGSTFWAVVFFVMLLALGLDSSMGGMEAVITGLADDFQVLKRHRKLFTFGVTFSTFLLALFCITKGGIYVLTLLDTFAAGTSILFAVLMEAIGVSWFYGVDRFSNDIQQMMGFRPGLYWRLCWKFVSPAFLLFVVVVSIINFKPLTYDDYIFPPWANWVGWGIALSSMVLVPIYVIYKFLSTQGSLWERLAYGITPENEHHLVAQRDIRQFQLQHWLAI
Another data set concerns the target β1-adrenergic receptor (Homo sapiens, UniProt P08588). In words: in vitro selectivity panel, β1-adrenergic receptor. The data set is classed as binding. The protocol:
as §1

For orientation: IC50 means the midpoint of a concentration-inhibition curve. A word on the Vd: it is the apparent volume that relates the amount in the body to the concentration in plasma or blood. A high value points to extensive tissue distribution. For orientation: half-life means the time needed for the level to fall by half in the phase considered. For orientation: bioavailability means the share of a dose that reaches the circulation, judged against a reference dose that is usually intravenous. A higher bioavailability goes with good availability.

T3 sequence (P23975 whole entry): as above
T2 sequence (Q01959 whole entry): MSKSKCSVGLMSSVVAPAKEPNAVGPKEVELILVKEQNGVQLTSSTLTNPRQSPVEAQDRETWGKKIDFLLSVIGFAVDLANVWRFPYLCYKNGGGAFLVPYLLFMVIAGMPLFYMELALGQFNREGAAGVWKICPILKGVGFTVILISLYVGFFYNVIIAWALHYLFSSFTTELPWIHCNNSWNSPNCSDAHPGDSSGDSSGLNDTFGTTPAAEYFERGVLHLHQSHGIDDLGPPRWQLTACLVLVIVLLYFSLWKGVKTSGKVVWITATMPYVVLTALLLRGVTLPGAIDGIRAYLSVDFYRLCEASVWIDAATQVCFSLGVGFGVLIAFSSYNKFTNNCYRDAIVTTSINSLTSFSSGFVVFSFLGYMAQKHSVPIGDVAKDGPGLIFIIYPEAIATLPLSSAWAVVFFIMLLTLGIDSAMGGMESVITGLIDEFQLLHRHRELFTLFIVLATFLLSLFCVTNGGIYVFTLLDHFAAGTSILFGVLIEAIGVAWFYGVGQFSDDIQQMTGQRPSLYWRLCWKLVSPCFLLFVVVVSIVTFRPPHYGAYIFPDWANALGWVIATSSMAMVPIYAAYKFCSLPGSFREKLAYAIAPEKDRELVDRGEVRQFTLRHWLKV
T1 sequence (Q01959 whole entry): as above
Sequence of sigma-1 (σ1) receptor (Q99720 whole entry): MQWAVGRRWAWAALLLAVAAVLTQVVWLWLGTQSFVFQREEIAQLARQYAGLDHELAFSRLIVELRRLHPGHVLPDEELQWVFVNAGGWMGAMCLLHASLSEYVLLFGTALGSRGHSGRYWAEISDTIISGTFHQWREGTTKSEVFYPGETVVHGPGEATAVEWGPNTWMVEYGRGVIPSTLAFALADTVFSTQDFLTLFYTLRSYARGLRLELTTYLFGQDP
Sequence of β1-adrenergic receptor (P08588 whole entry): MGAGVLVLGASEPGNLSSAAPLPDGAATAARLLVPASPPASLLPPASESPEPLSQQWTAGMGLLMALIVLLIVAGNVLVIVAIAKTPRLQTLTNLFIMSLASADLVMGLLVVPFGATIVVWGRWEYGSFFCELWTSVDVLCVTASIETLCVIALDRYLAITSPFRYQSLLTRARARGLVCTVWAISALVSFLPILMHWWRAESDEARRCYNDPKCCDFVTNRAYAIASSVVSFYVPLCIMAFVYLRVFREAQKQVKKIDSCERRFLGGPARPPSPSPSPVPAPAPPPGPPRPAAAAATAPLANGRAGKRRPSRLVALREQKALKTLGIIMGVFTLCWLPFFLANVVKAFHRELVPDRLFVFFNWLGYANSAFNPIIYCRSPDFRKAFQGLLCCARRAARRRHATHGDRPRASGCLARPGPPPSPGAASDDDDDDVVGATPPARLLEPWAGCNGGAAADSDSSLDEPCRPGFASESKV

In the case of `CC1CCN(CC2(c3ccc(Cl)cc3)CCC2)CC1COc1ccc(C(F)(F)F)cc1` (centres unmarked) [(1)], the half-maximal inhibitory concentration (IC50) was determined as 0.001 µM at DAT (SLC6A3) and 175 nM in data set [1]. Moreover, the “Sigma σ1 (nM)h” value on sigma-1 (σ1) receptor stood at 5000 nM. Also, the “D2 (nM)h” value at dopamine D2 receptor is listed as 1000 nM. In the data set “in vivo”, this molecule showed a Vd of 6 L/kg. For the same molecule, the half-life in “in vivo” (iv) is 3.33 h. The molecule further displayed a bioavailability in “in vivo” (po) of 40%. Also, the EC50 at DAT (h) turned out to be 1 nM; at NET (h), 1000 nM. Also, the “Histamine H1 (nM)h” value at Histamine H1 receptor is reported as 5000 nM. For the same molecule, the “β1-adrenergic (nM)h” value at β1-adrenergic receptor amounted to 5000 nM.

The values are drawn from patent US20100093706A1, “MULTIMEDIATOR TRANSPORTER INHIBITORS FOR USE IN TREATMENT OF CENTRAL NERVOUS SYSTEM DISORDERS” (priority 2006, published 2010).
